The structures appear in SMILES notation.

In turn, `N#CC(C#N)=NNc1ccc(CCCl)cc1` returned a logP of 3.58. The result for `N#CC(C#N)=NNc1cccc(Cl)c1` reads 3.38. `N#CC(C#N)=NNc1ccc([N+](=O)[O-])cc1` displayed a logP of 2.37. With `N#CC(C#N)=NNc1cccc(O)c1`, the logP was 2.28. To `N#CC(C#N)=NNc1ccc(OC(F)(F)F)cc1` belongs 3.68; to `Cc1ccc(NN=C(C#N)C#N)cc1`, 3.2; to `CC(=O)c1ccc(NN=C(C#N)C#N)cc1`, 2.1. Molecule `N#CC(C#N)=NNc1ccccc1[N+](=O)[O-]` showed a logP of 2.9.

For the molecule `N#CC(C#N)=NNc1ccc(Cl)cc1`, the logP was determined as 3.39.

Consider `CC(=O)Nc1ccc(NN=C(C#N)C#N)cc1`, for which the logP came to 1.83.
